Assay results as given in ChEMBL document CHEMBL5370554, “Discovery of a first-in-class Aurora A covalent inhibitor for the treatment of triple negative breast cancer” (Eur J Med Chem, 2023).

Key:
[1] = Metabolic stability in Sprague-Dawley rat liver microsomes assessed as half life at 1.75 uM incubated upto 60 mins in presence of NADPH by LC-MS analysis; assay type: ADME, Microsome
MDA-MB-231 [2] = assay: Induction of apoptosis in human MDA-MB-231 cells assessed as early apoptotic cells at 5 uM incubated for 24 hrs by Annexin V-FITC staining based flow cytometry (Rvb= 3.3%); assay type: functional
Aurora kinase A = molecular target: T1, Aurora kinase A (Homo sapiens, UniProt O14965); assay: Inhibition of recombinant human Aurora A (1 to 403 residues) expressed in Escherichia coli using FAM-labeled peptide as substrate preincubated for 10 mins followed by substrate addition and measured after 20 mins in presence of ATP by HTRF assay
T1 sequence (O14965 whole entry): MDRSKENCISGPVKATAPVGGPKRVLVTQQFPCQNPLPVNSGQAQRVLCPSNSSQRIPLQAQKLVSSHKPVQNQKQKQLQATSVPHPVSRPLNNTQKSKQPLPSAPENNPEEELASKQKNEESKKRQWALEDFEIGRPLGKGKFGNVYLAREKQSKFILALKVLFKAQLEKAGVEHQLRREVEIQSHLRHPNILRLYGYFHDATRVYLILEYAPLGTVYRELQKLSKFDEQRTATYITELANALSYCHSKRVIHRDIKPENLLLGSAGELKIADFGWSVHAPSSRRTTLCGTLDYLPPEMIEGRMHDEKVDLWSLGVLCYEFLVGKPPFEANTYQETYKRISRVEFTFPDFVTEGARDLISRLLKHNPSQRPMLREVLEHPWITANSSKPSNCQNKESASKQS

[3] = Cytotoxicity against human L02 cells assessed as inhibition of cell proliferation incubated for 48 hrs by CCK-8 assay; assay type: toxicity, cell-based
MDA-MB-231 [4] = assay: Induction of cell cycle arrest in human MDA-MB-231 cells assessed as accumulation at G2/M phase at 1.25 to 5 uM incubated for 24 hrs by PI staining based flow cytometry; assay type: functional; conditions: dose 1.25-5 µM

half-life at 1.75 µM [1]: 24.3 min
IC50 (Aurora kinase A): 0.0017 µM
SMILES: C=CC(=O)Nc1ccc(-c2nc(Nc3cc(C)[nH]n3)c3ccc(N4CCN(C)CC4)cc3n2)cc1
Activity (MDA-MB-231 [2]): 28.6%
IC50 at 48 h [3]: 23.4 µM
Activity (MDA-MB-231 [4]): Dose-Dependent Effect
